Source: patent US20250171420A1 (Monte Rosa Therapeutics, Inc., priority 2022, published 2025)

Columns and labels:
CK1α = target: T1, CK1α (Homo sapiens, UniProt P48729); experiment: CK1α NanoBit Assay (HiBiT-tagged CSNK1A1, HEK293 clonal lines); assay type: cell-based; details: HEK293 HiBiT-CSNK1A1/LgBiT cells, 24 h incubation
T1 construct: HEK293 clonal lines with CRISPR KI HiBiT tag on CSNK1A1
Outline: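 HEK293 clones carrying a CRISPR knock-in HiBiT tag on CSNK1A1 and stably expressing LgBiT are treated with compound for 24 hours at 37° C, 5% CO2, then read by luminescence. Response is normalized as 100*(S−N)/(P−N) against plate negative and positive controls, and DC50 values are derived.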

CRBN/DDB1 = CRBN/DDB1 (Homo sapiens, UniProt Q96SW2); experiment: HTRF binding assay (displacement of Cy5-thalidomide probe from CRBN/DDB1); details: CRBN/DDB1 2.5 nM, Cy5-Thalidomide 100 nM, 30 min; geometric mean; read-out: HTRF_Thali_Disp_DR_geo_IC50
CRBN/DDB1, sequence (Q96SW2 whole entry, species assumed): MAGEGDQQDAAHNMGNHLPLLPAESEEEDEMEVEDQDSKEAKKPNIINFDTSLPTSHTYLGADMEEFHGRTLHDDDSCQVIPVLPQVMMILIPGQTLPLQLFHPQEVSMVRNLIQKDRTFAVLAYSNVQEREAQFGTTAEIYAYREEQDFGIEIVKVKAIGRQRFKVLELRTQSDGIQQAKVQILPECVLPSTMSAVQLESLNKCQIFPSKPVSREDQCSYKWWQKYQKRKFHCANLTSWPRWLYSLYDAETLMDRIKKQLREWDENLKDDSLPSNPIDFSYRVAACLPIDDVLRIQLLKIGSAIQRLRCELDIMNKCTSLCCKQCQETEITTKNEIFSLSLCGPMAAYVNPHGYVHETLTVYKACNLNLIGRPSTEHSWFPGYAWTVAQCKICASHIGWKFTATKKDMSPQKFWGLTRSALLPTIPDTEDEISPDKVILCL
CRBN/DDB1, sequence (Q16531 whole entry partner, species assumed): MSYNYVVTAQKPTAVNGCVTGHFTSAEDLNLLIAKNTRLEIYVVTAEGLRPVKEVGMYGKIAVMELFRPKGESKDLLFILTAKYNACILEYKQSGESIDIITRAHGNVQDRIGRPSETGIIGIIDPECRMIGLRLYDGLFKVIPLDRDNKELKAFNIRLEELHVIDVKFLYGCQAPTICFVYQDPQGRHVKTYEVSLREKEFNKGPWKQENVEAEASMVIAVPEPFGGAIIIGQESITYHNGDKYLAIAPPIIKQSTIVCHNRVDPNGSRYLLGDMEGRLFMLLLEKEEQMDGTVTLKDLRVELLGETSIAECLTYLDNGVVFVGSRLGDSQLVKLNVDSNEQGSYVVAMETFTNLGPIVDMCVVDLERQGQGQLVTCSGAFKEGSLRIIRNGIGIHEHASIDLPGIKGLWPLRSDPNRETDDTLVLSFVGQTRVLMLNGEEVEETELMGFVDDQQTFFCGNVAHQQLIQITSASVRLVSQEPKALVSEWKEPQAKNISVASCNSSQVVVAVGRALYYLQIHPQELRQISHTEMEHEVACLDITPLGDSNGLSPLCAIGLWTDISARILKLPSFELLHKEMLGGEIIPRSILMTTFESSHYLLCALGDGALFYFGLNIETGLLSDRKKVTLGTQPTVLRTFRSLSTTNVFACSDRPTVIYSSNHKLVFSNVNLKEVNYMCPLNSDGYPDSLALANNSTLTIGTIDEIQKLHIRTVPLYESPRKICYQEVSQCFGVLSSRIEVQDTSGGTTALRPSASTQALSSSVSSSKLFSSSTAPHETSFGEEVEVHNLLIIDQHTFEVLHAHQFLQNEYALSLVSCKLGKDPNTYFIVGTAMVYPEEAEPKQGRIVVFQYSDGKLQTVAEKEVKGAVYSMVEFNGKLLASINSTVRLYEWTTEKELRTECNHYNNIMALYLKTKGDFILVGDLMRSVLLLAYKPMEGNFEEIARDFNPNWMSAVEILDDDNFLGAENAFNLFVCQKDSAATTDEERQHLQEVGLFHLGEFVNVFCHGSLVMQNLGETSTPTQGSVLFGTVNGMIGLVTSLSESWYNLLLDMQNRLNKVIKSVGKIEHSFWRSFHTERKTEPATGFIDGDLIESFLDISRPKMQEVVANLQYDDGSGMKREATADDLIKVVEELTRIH
Description: Binding of test compounds to CRBN/DDB1 was monitored in an HTRF assay using 1-[5-({2-[2-(2-{[2-(2,6-dioxopiperidin-3-yl)-1,3-dioxo-2,3-dihydro-1H-isoindol-4-yl]oxy}acetamido)ethoxy]ethyl}carbamoyl)pentyl]-3,3-dimethyl-2-[(1E,3E)-5-[(2E)-1,3,3-trimethyl-5-sulfo-2,3-dihydro-1H-indol-2-ylidene]penta-1,3-dien-1-yl]-3H-indol-1-ium-5-sulfonate as a fluorescent probe. In this assay, compounds displace the fluorescently labeled thalidomide-based probe bound to CRBN and fluorescence is monitored with increasing compound concentration. Assays were conducted in Greiner white 384 well HiBase plates (Cat. No 784075-25) in 10 μL total volume. A one pot detection solution of CRBN/DDB1 (2.5 nM), anti-His Terbium Cryptate Gold (1×, PerkinElmer Cat. #: 61HI2TLB), and Cy5-Thalidomide (100 nM, Tenova Cat.: T52461) was prepared in 20 mM HEPES, 20 mM NaCl, 0.2 mM TCEP, 0.2 mM EDTA, and 0.005% Tween20 was dispensed to each assay plate. Test compounds were stored in dry, ambient temperatures at 10 mM. A 10-point, 1:3 dilution series was prepared from 10 mM stock concentrations in Echo-compatible LDV plates. 10 nL of each compound dilution series was dispensed into assays wells using an Echo 650 (Labcyte inc. USA). 10 nL of 10 mM lenalidomide (Selleckchem Cat no. S1029) was transferred into the active-control wells for the assay and 10 nL of DMSO was transferred into the negative control wells. The assay was then allowed to incubate for 30 min at ambient temperature after transferring the test compounds. Plate measurements were taken on a Pherastar FSX (BMG Labtech, Germany) using the HTRF Red filter (Ex. 337 nm, em1: 620 nm, em2: 665 nm) (Flashes: 50, Integration time: 60-400 μs, Z-height: 10 mm, Ratio-multiplier: 10,000). Analysis, HTRF ratio and IC50 values were derived using KNIME analytics (KNIME Zurich) transformation and fitting within Collaborative Drug Discovery (Collaborative Drug Discovery USA) using a 4-parameter logistic fit. HTRF ratio calculation was performed using the following formula: […]
where Y represents the HTRF ratio response (as defined previously), X the compound concentration in μM, Ymin the minimum response plateau, Ymax the maximum response plateau, IC50 the concentration of agonist that gives a response half way between Ymin and Ymax and HillSlope the steepness of the family of curves. No fitting model constraints was applied on Ymin, or Ymax whilst IC50>0 and −0.5>HillSlope>−3
Ki values were derived from the geometric mean of the IC50 values using the Cheng-Prusoff transformation:
where [L] represents the concentration of fluorescent probe in μM, Kd the affinity (binding constant) of the fluorescent probe in units of μM and IC50 the concentration of agonist that gives a response halfway between Ymin and Ymax (as described in 1.2.1)
Analysis and IC50 values were derived using KNIME analytics (KNIME, Zurich) transformation and fitting within Collaborative Drug Discovery (Collaborative Drug Discovery, USA) as described in 1.2.1. Ki values were derived from the geometric mean of the IC50 values using the Cheng-Prusoff transformation as described in 2.2.2. Data was visualized in GraphPad Prism 8.1.2 (GraphPad, USA) and reported as mean and standard deviation. Microsoft Office Excel 2012 (Redmond, WA) was used for calculation of mean and standard deviation.
IC50 data are reported in Table 3 for compounds in Table 1. In Table 3 below, According to the code, A represents a IC50 value of ≤0.1 μM, B represents a IC50 value>0.1 μM and ≤1 μM, C represents an IC50 value>1 μM.

T1 sequence (P48729 whole entry): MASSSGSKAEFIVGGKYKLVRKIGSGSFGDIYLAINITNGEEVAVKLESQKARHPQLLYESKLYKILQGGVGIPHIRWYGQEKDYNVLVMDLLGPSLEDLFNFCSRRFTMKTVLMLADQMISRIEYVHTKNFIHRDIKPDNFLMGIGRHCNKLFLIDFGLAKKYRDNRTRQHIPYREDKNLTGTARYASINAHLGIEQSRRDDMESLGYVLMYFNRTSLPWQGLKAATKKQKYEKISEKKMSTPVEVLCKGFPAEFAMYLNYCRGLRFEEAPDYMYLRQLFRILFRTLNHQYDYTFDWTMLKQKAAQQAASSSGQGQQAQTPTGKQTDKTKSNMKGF
T1 sequence (Q96SW2 whole entry, further chain): as the sequence (Q96SW2 whole entry, species assumed) above
T1 sequence (Q16531 2-1140 partner limits assumed): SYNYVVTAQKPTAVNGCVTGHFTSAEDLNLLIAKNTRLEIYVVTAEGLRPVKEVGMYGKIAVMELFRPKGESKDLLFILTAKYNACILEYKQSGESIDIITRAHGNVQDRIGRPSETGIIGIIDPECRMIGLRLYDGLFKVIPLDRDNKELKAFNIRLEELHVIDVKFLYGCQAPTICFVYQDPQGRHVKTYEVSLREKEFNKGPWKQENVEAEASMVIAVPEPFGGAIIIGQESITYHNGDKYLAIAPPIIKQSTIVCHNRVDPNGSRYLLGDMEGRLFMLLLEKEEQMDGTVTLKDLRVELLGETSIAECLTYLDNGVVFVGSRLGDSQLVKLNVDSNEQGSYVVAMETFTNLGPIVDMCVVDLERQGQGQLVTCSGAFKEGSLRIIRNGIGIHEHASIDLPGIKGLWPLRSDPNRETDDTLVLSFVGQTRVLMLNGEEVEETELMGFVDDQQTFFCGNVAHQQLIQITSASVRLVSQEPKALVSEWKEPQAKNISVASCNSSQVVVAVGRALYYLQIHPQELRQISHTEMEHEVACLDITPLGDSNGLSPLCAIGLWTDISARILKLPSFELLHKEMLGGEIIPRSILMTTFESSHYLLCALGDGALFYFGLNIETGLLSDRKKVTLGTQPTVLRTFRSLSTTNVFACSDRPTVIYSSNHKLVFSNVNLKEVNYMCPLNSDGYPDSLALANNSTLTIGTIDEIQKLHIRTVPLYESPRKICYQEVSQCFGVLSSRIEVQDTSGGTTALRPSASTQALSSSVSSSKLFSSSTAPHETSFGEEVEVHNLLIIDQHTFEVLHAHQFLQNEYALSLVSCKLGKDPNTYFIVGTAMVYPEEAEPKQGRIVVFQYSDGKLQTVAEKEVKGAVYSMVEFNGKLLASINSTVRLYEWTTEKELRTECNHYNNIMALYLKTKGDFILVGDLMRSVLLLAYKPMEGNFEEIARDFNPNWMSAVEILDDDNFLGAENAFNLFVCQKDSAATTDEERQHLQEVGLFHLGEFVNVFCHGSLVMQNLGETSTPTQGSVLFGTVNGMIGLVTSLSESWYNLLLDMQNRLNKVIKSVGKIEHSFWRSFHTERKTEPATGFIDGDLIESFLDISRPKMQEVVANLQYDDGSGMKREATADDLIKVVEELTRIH

Row | SMILES | DC50 (CK1α) [µM] | IC50 (CRBN/DDB1) [nM]
1 | CNC(=O)[C@@H]1Cc2ccccc2N1C(=O)Nc1ccc2c(c1)CN(C1CCC(=O)NC1=O)C2=O (stereo partly drawn) [Compound 326, (2S)—N^1-(2-(2,6-dioxopiperidin-3-yl)-1-oxoisoindolin-5-yl)-N^2-methylindoline-1,2-dicarboxamide] | 0.1 to 1 | 100 to 1000
2 | N#Cc1cccc2c1N(C(=O)Nc1ccc3c(c1)CN(C1CCC(=O)NC1=O)C3=O)CC2 (stereo not shown) [Compound 147, 7-cyano-N-(2-(2,6-dioxopiperidin-3-yl)-1-oxoisoindolin-5-yl)indoline-1-carboxamide] | > 1 | 100 to 1000
3 | O=C1CCC(N2Cc3cc(NC(=O)N4CCc5ccc(C6CCOC6)cc54)ccc3C2=O)C(=O)N1 (stereo not shown) [Compound 364, N-(2-(2,6-dioxopiperidin-3-yl)-1-oxoisoindolin-5-yl)-6-(tetrahydrofuran-3-yl)indoline-1-carboxamide] | 0.1 to 1 | 100 to 1000
4 | O=C1CCC(N2Cc3cc(NC(=O)N4CCOc5ccccc54)ccc3C2=O)C(=O)N1 (stereo not shown) [Compound 285, N-(2-(2,6-dioxopiperidin-3-yl)-1-oxoisoindolin-5-yl)-2H-benzo[b][1,4]oxazine-4(3H)-carboxamide] | 0.1 to 1 | 100 to 1000
5 | O=C1CCC(N2Cc3cc(NC(=O)N4CCc5cccnc54)ccc3C2=O)C(=O)N1 (stereo not shown) [Compound 112, N-(2-(2,6-dioxopiperidin-3-yl)-1-oxoisoindolin-5-yl)-2,3-dihydro-1H-pyrrolo[2,3-b]pyridine-1-carboxamide] | 0.1 to 1 | > 1000
6 | CN1CCN(c2ccc3c(c2)CCN3C(=O)Nc2ccc3c(c2)CN(C2CCC(=O)NC2=O)C3=O)CC1 (stereo not shown) [Compound 351, N-(2-(2,6-dioxopiperidin-3-yl)-1-oxoisoindolin-5-yl)-5-(4-methylpiperazin-1-yl)indoline-1-carboxamide] | 0.1 to 1 | 100 to 1000
7 | COC[C@H]1Cc2ccccc2N1C(=O)Nc1ccc2c(c1)CN(C1CCC(=O)NC1=O)C2=O (stereo partly drawn) [Compound 352, (2R)—N-(2-(2,6-dioxopiperidin-3-yl)-1-oxoisoindolin-5-yl)-2-(methoxymethyl)indoline-1-carboxamide] | < 0.1 | 100 to 1000
8 | COC[C@H]1Cc2cc(C(F)(F)F)ncc2N1C(=O)Nc1ccc2c(c1)CN(C1CCC(=O)NC1=O)C2=O (stereo partly drawn) [Compound 295, (2R)—N-(2-(2,6-dioxopiperidin-3-yl)-1-oxoisoindolin-5-yl)-2-(methoxymethyl)-5-(trifluoromethyl)-2,3-dihydro-1H-pyrrolo[2,3-c]pyridine-1-carboxamide] | < 0.1 | 100 to 1000
9 | O=C1CCC(N2Cc3cc(NC(=O)N4CCc5ccc(C6CC6)cc54)ccc3C2=O)C(=O)N1 (stereo not shown) [Compound 291, 6-cyclopropyl-N-(2-(2,6-dioxopiperidin-3-yl)-1-oxoisoindolin-5-yl)indoline-1-carboxamide] | < 0.1 | 100 to 1000
10 | O=C1CCC(N2Cc3cc(NC(=O)N4CCc5cccc(C(F)(F)F)c54)ccc3C2=O)C(=O)N1 (stereo not shown) [Compound 117, N-(2-(2,6-dioxopiperidin-3-yl)-1-oxoisoindolin-5-yl)-7-(trifluoromethyl)indoline-1-carboxamide] | 0.1 to 1 | 100 to 1000
11 | CCOC[C@@H]1Cc2ccccc2N1C(=O)Nc1ccc2c(c1)CN(C1CCC(=O)NC1=O)C2=O (stereo partly drawn) [Compound 313, (2S)—N-(2-(2,6-dioxopiperidin-3-yl)-1-oxoisoindolin-5-yl)-2-(ethoxymethyl)indoline-1-carboxamide] | < 0.1 | 100 to 1000
12 | O=C1CCC(N2Cc3cc(NC(=O)N4c5ccccc5C[C@H]4COC(F)(F)F)ccc3C2=O)C(=O)N1 (stereo partly drawn) [Compound 311, (2S)—N-(2-(2,6-dioxopiperidin-3-yl)-1-oxoisoindolin-5-yl)-2-((trifluoromethoxy)methyl)indoline-1-carboxamide] | < 0.1 | 100 to 1000
13 | O=C1CC[C@H](N2Cc3cc(NC(=O)N4c5ccccc5C[C@@H]4C(F)(F)F)ccc3C2=O)C(=O)N1 (single isomer, unassigned) [Compound 362] | < 0.1 | 100 to 1000

The next lines start with the values.

Row | DC50 (CK1α) [µM] | IC50 (CRBN/DDB1) [nM] | SMILES
14 | < 0.1 | 100 to 1000 | COCC1Cc2cc(C(F)(F)F)ncc2N1C(=O)Nc1ccc2c(c1)CN(C1CCC(=O)NC1=O)C2=O (stereo not shown) [Compound 321, N-(2-(2,6-dioxopiperidin-3-yl)-1-oxoisoindolin-5-yl)-2-(methoxymethyl)-5-(trifluoromethyl)-2,3-dihydro-1H-pyrrolo[2,3-c]pyridine-1-carboxamide]
15 | < 0.1 | 100 to 1000 | COC(C)c1cccc2c1CCN2C(=O)Nc1ccc2c(c1)CN(C1CCC(=O)NC1=O)C2=O (stereo not shown) [Compound 343, N-(2-(2,6-dioxopiperidin-3-yl)-1-oxoisoindolin-5-yl)-4-(1-methoxyethyl)indoline-1-carboxamide]
16 | < 0.1 | 100 to 1000 | CC1CN(C(=O)Nc2ccc3c(c2)CN(C2CCC(=O)NC2=O)C3=O)Cc2ccccc21 (stereo not shown) [Compound 191, N-(2-(2,6-dioxopiperidin-3-yl)-1-oxoisoindolin-5-yl)-4-methyl-3,4-dihydroisoquinoline-2(1H)-carboxamide]
17 | < 0.1 | 100 to 1000 | O=C1CCC(N2Cc3cc(NC(=O)N4CC5(CCOC5)c5ccccc54)ccc3C2=O)C(=O)N1 (stereo not shown) [Compound 317, N-(2-(2,6-dioxopiperidin-3-yl)-1-oxoisoindolin-5-yl)-4,5-dihydro-2H-spiro[furan-3,3′-indoline]-1′-carboxamide]
18 | < 0.1 | 100 to 1000 | CC1(C)Cc2ccccc2N1C(=O)Nc1ccc2c(c1)CN(C1CCC(=O)NC1=O)C2=O (stereo not shown) [Compound 132]
19 | < 0.1 | 100 to 1000 | CC1c2ccccc2N(C(=O)Nc2ccc3c(c2)CN(C2CCC(=O)NC2=O)C3=O)C1C (stereo not shown) [Compound 123, N-(2-(2,6-dioxopiperidin-3-yl)-1-oxoisoindolin-5-yl)-2,3-dimethylindoline-1-carboxamide]
20 | < 0.1 | 100 to 1000 | O=C1CCC(N2Cc3cc(NC(=O)N4CCc5cccc(F)c54)ccc3C2=O)C(=O)N1 (stereo not shown) [Compound 163, N-(2-(2,6-dioxopiperidin-3-yl)-1-oxoisoindolin-5-yl)-7-fluoroindoline-1-carboxamide]
21 | < 0.1 | 100 to 1000 | C[C@@H]1Cc2c(F)cccc2N1C(=O)Nc1ccc2c(c1)CN(C1CCC(=O)NC1=O)C2=O (stereo partly drawn) [Compound 354, (2R)—N-(2-(2,6-dioxopiperidin-3-yl)-1-oxoisoindolin-5-yl)-4-fluoro-2-methylindoline-1-carboxamide]
22 | < 0.1 | 100 to 1000 | O=C1CCC(N2Cc3cc(NC(=O)N4c5cccc(F)c5C[C@H]4COC(F)F)ccc3C2=O)C(=O)N1 (stereo partly drawn) [Compound 308, (2S)-2-((difluoromethoxy)methyl)-N-(2-(2,6-dioxopiperidin-3-yl)-1-oxoisoindolin-5-yl)-4-fluoroindoline-1-carboxamide]
23 | < 0.1 | 100 to 1000 | O=C1CCC(N2Cc3cc(NC(=O)N4c5ccccc5C[C@H]4COCC(F)(F)F)ccc3C2=O)C(=O)N1 (stereo partly drawn) [Compound 316, (2S)—N-(2-(2,6-dioxopiperidin-3-yl)-1-oxoisoindolin-5-yl)-2-((2,2,2-trifluoroethoxy)methyl)indoline-1-carboxamide]
